Results as given in patent US20210379210A1, “RADIOLIGANDS FOR IMAGING THE LPA1 RECEPTOR” (BRISTOL-MYERS SQUIBB COMPANY, priority 2018, published 2021).
Values joined by “and” are separate entries in the source; they are usually repeats but may differ in a detail not shown here. Identical values can stand only once.

Tested on: LPA1
Assay: In-vivo PET imaging in cynomolgus monkeys, lung SUV and % displacement
Design: species or system cynomolgus monkey
Conditions: healthy cynomolgus monkeys, listed as [^18F]-(1S,3S)-3-(6-(5-((((4-(fluoro)butyl)(methyl)carbamoyl)oxy)methyl)-1-meth))
Experimental: [^18F]-(1S,3S)-3-((6-(5-((((4-(fluoro)butyl)(methyl)carbamoyl)oxy)methyl)-1-methyl-1H-1,2,3-triazol-4-yl)-2-methylpyridin-3-yl)oxy)cyclohexane-1-carboxylic acid was tested as an LPA1 PET radioligand to validate the target engagement of LPA1 antagonist used in normal healthy cynomolgus monkeys and to support future clinical use of this agent as a PET radioligand. In this experiment, the specific binding to LPA1, PET imaging in normal healthy cynomolgus monkeys (n=3) was performed. PET images were acquired at baseline and again at after oral administration of an LPA1 antagonist (3, 10, and 30 mg/kg) or vehicle solution (0.5% Methocel A4M: 0.1% Tween 80 (Polysorbate 80): 99.4% Water) only. The oral dosing time of LPA1 antagonist or vehicle was 3 hours prior to [^18F]-labeled antagonist injection. Cynomolgus monkeys on study were fasted beginning the morning of the imaging day. Veterinary Scientists induced initial anesthesia pre-op cocktail of 0.02 mg/kg Atropine, and 5 mg/kg Telazol, 0.1 mg/kg Hydromorphone IM. […] Vital signs were continuously monitored throughout the imaging study. […] After returning to a conscious state, the monkey was transferred to an isolation room with food and water until the radioactivity was decayed to background levels. […]

SMILES: Cc1nc(-c2nnn(C)c2COC(=O)N(C)CCCC[18F])ccc1O[C@H]1CCC[C@H](C(=O)O)C1 [Example 16]
- SUV in Lung (60-90 min) (individual baseline scans): 0.307 and 0.428 and 0.333 and 0.273 and 0.356 and 0.379 and 0.403 and 0.459
- average SUV at baseline for individual animals (lung, mean of baseline scans per animal): 0.398 and 0.321 and 0.391
